# In paper PMC11915811, “Conformational activation and disulfide exchange in HIV-1 Env induce cell-free lytic/fusogenic transformation and enhance infection” (Journal of Virology, 2025):
# “Also recorded” adds a separate entry of the source. Read-outs that look alike come from different tables or passages of the source.
# B1: Trx1: recombinant human thioredoxin-1, purchased from Cayman Chemical (protein)
# chain: MVKQIESKTAFQEALDAAGDKLVVVDFSATWCGPCKMIKPFFHSLSEKYSNVIFLEVDVDDCQDVASECEVKCMPTFQFFKKGQKVGEFSGANKEKLEATINELV
# How the values were obtained:
# gp120 = details: read-out: Kd, gp120 binding affinity, cited from earlier work
# JRFL pseudovirus [1] = assay: Cell-free lysis of JRFL pseudovirus, p24 release detected by ELISA; details: 2 h at 37°C; for Lysis of JRFL pseudovirus in conjunction with Trx1 (in words): 1,000 nM compound + serial dilutions of Trx1; for p24 leakage from JRFL pseudovirus with thiol compound in place of Trx1: 1,000 nM KR13b + 1,000 nM free cysteine or glutathione, mean of three independent experiments
# BaL.01 pseudovirus = assay type: cell-based, HIV-1; details: 1,000 nM Trx1; HOS CD4+ CCR5+ cells; normalized to pseudovirus + PBS
# VSV pseudovirus = assay type: cell-based, vesicular stomatitis virus
# HXB2 pseudovirus = assay type: cell-based, HIV-1; details: 1,000 nM Trx1; HOS CD4+ CCR5+ cells; normalized to pseudovirus + PBS
# JRFL pseudovirus [2] = assay type: cell-based, HIV-1; details: 1,000 nM Trx1; HOS CD4+ CCR5+ cells; normalized to pseudovirus + PBS
molecule,measurement,setting,value
COc1ccnc2[nH]cc(C(=O)C(=O)N3CCN(C(=O)c4ccccc4)C[C@H]3C)c12 [BMS-806],Kd,gp120; SPA (scintillation proximity assay),21.1 ± 1.9 nM
same,Lysis of JRFL pseudovirus in conjunction with Trx1 (in words),JRFL pseudovirus [1],did not
CNCc1ccc2c(c1)C[C@H](CN=C(N)N)[C@H]2NC(=O)C(=O)Nc1ccc(Cl)c(F)c1.O=C(O)C(F)(F)F.O=C(O)C(F)(F)F [BNM-III-170],Kd,gp120; ITC,47 nM
same,Lysis of JRFL pseudovirus in conjunction with Trx1 (in words),JRFL pseudovirus [1],did cause lysis
N[C@@H](CS)C(=O)O [cysteine],p24 leakage from JRFL pseudovirus with thiol compound in place of Trx1,JRFL pseudovirus [1],Neither thiol compound caused leakage of p24 above background
N[C@@H](CCC(=O)N[C@@H](CS)C(=O)NCC(=O)O)C(=O)O [glutathione],p24 leakage from JRFL pseudovirus with thiol compound in place of Trx1,JRFL pseudovirus [1],Neither thiol compound caused leakage of p24 above background
B1,Enhancement of pseudovirus infectivity (RLU) by exogenous Trx1,BaL.01 pseudovirus,at least doubling its RLU values
same,Enhancement of VSV infection by Trx1,VSV pseudovirus,10–40%
same,Enhancement of pseudovirus infectivity (RLU) by exogenous Trx1,HXB2 pseudovirus,at least doubling its RLU values
same,p24 release / lysis of JRFL pseudovirus by the component alone (control),"JRFL pseudovirus [1]; serial dilutions of the single component, no partner",no significant p24 release; also recorded: negligible lysis
same,Effect of preincubating virus with one component on lysis (order of addition),"JRFL pseudovirus [1]; virus preincubated with 1,000 nM of labelled component for 0–30 min, then 1,000 nM of the other (KR13b or Trx1) added, versus no preincubation",significant decrease in lytic effect at 10 min
same,Enhancement of pseudovirus infectivity (RLU) by exogenous Trx1,JRFL pseudovirus [2],at least doubling its RLU values
